Values after ≈ are worked out from the molar mass of the structure shown.
Key:
[1] = test system: OVCAR-5; test: cells; details: Homo sapiens, OVCAR-5, 48 h; for CC50: read-out: LC50
[2] = test system: NCI/ADR-RES; test: cells; details: Homo sapiens, 48 h; for CC50: read-out: LC50
[3] = test system: TK-10; test: cells; details: Homo sapiens, TK-10, 48 h; for CC50: read-out: LC50
[4] = Hemolytic activity, spectrophotometric; assay type: cell-based, human; details: human, human red blood cells (huRBC), 5% hematocrit, 200 μg/mL, 37 °C
[5] = test system: IGROV1; test: cells; details: Homo sapiens, IGROV-1, 48 h; for CC50: read-out: LC50
[6] = test system: NCI-H460; test: cells; details: Homo sapiens, NCI-H460, 48 h; for CC50: read-out: LC50
[7] = test system: KM12; test: cells; details: Homo sapiens, KM12, 48 h; for CC50: read-out: LC50
[8] = test system: N. gonorrhoeae ATCC 49226; test: MIC on GC agar plates; assay type: cell-based, Neisseria gonorrhoeae; details: Neisseria gonorrhoeae, ATCC49226, read-out: MIC
Method in brief: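 N. gonorrhoeae (1 × 10^4 CFU) was spotted onto IsoVitaleX-supplemented (1%) GC agar containing graded compound levels. The lowest inhibitory concentration was recorded as the MIC, with oxidase testing used to verify growth, and each assay was done in duplicate on at least two separate occasions.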

[9] = test system: M. tuberculosis ATCC 27294; test: Antitubercular broth microdilution MIC; assay type: cell-based; details: Mycobacterium tuberculosis; M. tuberculosis ATCC 27294 (H37Rv); read-out: Minimum inhibitory concentration (MIC)
[10] = test system: CCRF-CEM; test: cells; details: Homo sapiens, 48 h; for CC50: read-out: LC50
[11] = test system: CAKI-1; test: cells; details: Homo sapiens, CAKI-1, 48 h; for CC50: read-out: LC50
[12] = test system: OVCAR-8; test: cells; details: Homo sapiens, OVCAR-8, 48 h; for CC50: read-out: LC50
[13] = test system: MDA-MB-435; test: cells; details: Homo sapiens, MDA-MB-435, 48 h; for CC50: read-out: LC50
[14] = test system: SW-620; test: cells; details: Homo sapiens, SW-620, 48 h; for CC50: read-out: LC50
[15] = test system: SK-OV-3; test: cells; details: Homo sapiens, SK-OV-3, 48 h; for CC50: read-out: LC50
[16] = test system: T-47D; test: cells; details: Homo sapiens, T47D, 48 h; for CC50: read-out: LC50
[17] = test system: SK-MEL-28; test: cells; details: Homo sapiens, SK-MEL-28, 48 h; for CC50: read-out: LC50
[18] = test system: HL-60(TB); test: cells; details: Homo sapiens, HL-60, 48 h; for CC50: read-out: LC50
[19] = test system: SN12C; test: cells; details: Homo sapiens, 48 h; for CC50: read-out: LC50
[20] = test system: MCF7; test: cells; details: Homo sapiens, MCF7, 48 h; for CC50: read-out: LC50
[21] = test system: K-562; test: cells; details: Homo sapiens, K562, 48 h; for GI50: K-562, 48 h
[22] = test system: OVCAR-4; test: cells; details: Homo sapiens, OVCAR-4, 48 h; for CC50: read-out: LC50
[23] = test system: SK-MEL-2; test: cells; details: Homo sapiens, SK-MEL-2, 48 h; for CC50: read-out: LC50
[24] = test system: MALME-3M; test: cells; details: Homo sapiens, 48 h; for CC50: read-out: LC50
[25] = test system: DU-145; test: cells; details: Homo sapiens, DU-145, 48 h; for CC50: read-out: LC50
[26] = test system: NCI-H522; test: cells; details: Homo sapiens, NCI-H522, 48 h; for CC50: read-out: LC50
[27] = test system: SR; test: cells; details: Homo sapiens, 48 h

Question: For Cc1ccc(C2CC(c3ccc(S(=O)(=O)NCCNc4nc(Nc5ccc(F)cc5)nc(N(C)C)n4)cc3)=Nc3c(N)nc(N)nc3N2)cc1 (stereo not drawn) [31b], which GI50 [1] is on record?
Answer: The GI50 was > 100 µM.

Question: And the CC50 [1]?
Answer: Its CC50 is > 100 µM.

Question: And the GI50 [2]?
Answer: Its GI50 is > 100 µM.

Question: And the CC50 [2]?
Answer: Its CC50 is > 100 µM.

Question: And the GI50 [3]?
Answer: Its GI50 is > 100 µM.

Question: And the CC50 [3]?
Answer: Its CC50 is > 100 µM.

Question: And the hemolysis at 24 h, 200 µg/mL [4]?
Answer: Its hemolysis at 24 h, 200 µg/mL is 1.7%.

Question: What about the GI50 [5] of the same molecule?
Answer: Its GI50 is 64.4 µM.

Question: And the CC50 [5]?
Answer: The CC50 was > 100 µM.

Question: And the GI50 [6]?
Answer: Its GI50 is 4.76 µM.

Question: And the CC50 [6]?
Answer: The CC50 was > 100 µM.

Question: And the GI50 [7]?
Answer: Its GI50 is 4.56 µM.

Question: What about the CC50 [7] of the same molecule?
Answer: Its CC50 is > 100 µM.

Question: And the MIC [8]?
Answer: The MIC was 8 µg/mL (≈ 11.5 µM).

Question: What about the MIC [9] of the same molecule?
Answer: Its MIC is 0.6 µg/mL (≈ 0.86 µM).

Question: What about the GI50 [10] of the same molecule?
Answer: The GI50 was 2.81 µM.

Question: What about the CC50 [10] of the same molecule?
Answer: Its CC50 is > 100 µM.

Question: And the GI50 [11]?
Answer: The GI50 was 8.06 µM.

Question: What about the CC50 [11] of the same molecule?
Answer: Its CC50 is > 100 µM.

Question: And the CC50 [12]?
Answer: The CC50 was > 100 µM.

Question: And the GI50 [13]?
Answer: The GI50 was 8.79 µM.

Question: And the CC50 [13]?
Answer: The CC50 was > 100 µM.

Question: And the GI50 [14]?
Answer: Its GI50 is 8.04 µM.

Question: And the CC50 [14]?
Answer: Its CC50 is > 100 µM.

Question: What about the GI50 [15] of the same molecule?
Answer: Its GI50 is > 100 µM.

Question: What about the CC50 [15] of the same molecule?
Answer: Its CC50 is > 100 µM.

Question: And the GI50 [16]?
Answer: Its GI50 is 8.75 µM.

Question: And the CC50 [16]?
Answer: Its CC50 is > 100 µM.

Question: And the GI50 [17]?
Answer: Its GI50 is 26.9 µM.

Question: What about the CC50 [17] of the same molecule?
Answer: Its CC50 is > 100 µM.

Question: And the GI50 [18]?
Answer: The GI50 was 2.94 µM.

Question: What about the CC50 [18] of the same molecule?
Answer: Its CC50 is 20.2 µM.

Question: What about the GI50 [19] of the same molecule?
Answer: The GI50 was > 100 µM.

Question: What about the CC50 [19] of the same molecule?
Answer: Its CC50 is > 100 µM.

Question: And the GI50 [20]?
Answer: The GI50 was 3.08 µM.

Question: And the CC50 [20]?
Answer: The CC50 was > 100 µM.

Question: And the GI50 [21]?
Answer: Its GI50 is 2.75 µM.

Question: And the CC50 [22]?
Answer: Its CC50 is > 100 µM.

Question: What about the GI50 [23] of the same molecule?
Answer: Its GI50 is 11.2 µM.

Question: What about the CC50 [23] of the same molecule?
Answer: The CC50 was 77.7 µM.

Question: And the GI50 [24]?
Answer: The GI50 was 4.65 µM.

Question: And the CC50 [24]?
Answer: The CC50 was 33.2 µM.

Question: What about the GI50 [25] of the same molecule?
Answer: The GI50 was > 100 µM.

Question: And the CC50 [25]?
Answer: Its CC50 is > 100 µM.

Question: And the GI50 [26]?
Answer: The GI50 was 21.3 µM.

Question: What about the CC50 [26] of the same molecule?
Answer: The CC50 was > 100 µM.

Question: Which results are given for Cc1ccc(/C=C/C(=O)c2ccc(S(=O)(=O)NCCNc3nc(Nc4ccc(F)cc4)nc(N(C)C)n3)cc2)cc1 [24b]?
Answer: GI50 [1]: 14.9 µM; CC50 [1]: 53.7 µM; GI50 [2]: 8.4 µM; CC50 [2]: 47.1 µM; GI50 [3]: 15.2 µM; CC50 [3]: 61.9 µM; hemolysis at 24 h, 200 µg/mL [4]: 1.2%; GI50 [5]: 15.1 µM; CC50 [5]: 63.6 µM; GI50 [6]: 4.22 µM; CC50 [6]: 52.3 µM; GI50 [7]: 5.41 µM; CC50 [7]: 99.7 µM; GI50 [27]: 2.76 µM; CC50 ([27]; read-out: LC50): > 100 µM; MIC [9]: 25 µg/mL (≈ 43.4 µM); GI50 [10]: 5.28 µM; CC50 [10]: > 100 µM; GI50 [11]: 6.98 µM; CC50 [11]: 58 µM; GI50 [12]: 13 µM; CC50 [12]: 56 µM; GI50 [13]: 6.03 µM; CC50 [13]: 61.7 µM; GI50 [14]: 7.53 µM; CC50 [14]: 49.4 µM; GI50 [15]: 17 µM; CC50 [15]: > 100 µM; GI50 [16]: 3.86 µM; CC50 [16]: 52.7 µM; GI50 [17]: 11.3 µM; CC50 [17]: 49.6 µM; GI50 [18]: 5.58 µM; CC50 [18]: > 100 µM; GI50 [19]: 11.2 µM; CC50 [19]: 48.8 µM; GI50 [20]: 2.01 µM; CC50 [20]: 25.2 µM; GI50 [21]: 3.89 µM; CC50 ([21]; read-out: LC50): > 100 µM; GI50 [22]: 7.79 µM; CC50 [22]: > 100 µM; GI50 [23]: 11.2 µM; CC50 [23]: 52.3 µM; GI50 [24]: 16.4 µM; CC50 [24]: 60.9 µM; GI50 [25]: 14 µM; CC50 [25]: 74.8 µM; GI50 [26]: 5.24 µM; CC50 [26]: 45.3 µM

Reference: paper PMC11012124, “Synthesis of Novel Triazine-Based Chalcones and 8,9-dihydro-7H-pyrimido[4,5-b][1,4]diazepines as Potential Leads in the Search of Anticancer, Antibacterial and Antifungal Agents” (International Journal of Molecular Sciences, 2024)
